This is an account of results in patent US20260138978A1, “POSITIVE ALLOSTERIC MODULATORS OF THE MUSCARINIC ACETYLCHOLINE RECEPTOR M1” (Vanderbilt University, priority 2022, published 2026).

For assay [1], the target named is T1, human mAChRM1 (Homo sapiens, UniProt P11229).
T1 construct: host or cells: CHO-K1
T1 sequence (P11229 1-460): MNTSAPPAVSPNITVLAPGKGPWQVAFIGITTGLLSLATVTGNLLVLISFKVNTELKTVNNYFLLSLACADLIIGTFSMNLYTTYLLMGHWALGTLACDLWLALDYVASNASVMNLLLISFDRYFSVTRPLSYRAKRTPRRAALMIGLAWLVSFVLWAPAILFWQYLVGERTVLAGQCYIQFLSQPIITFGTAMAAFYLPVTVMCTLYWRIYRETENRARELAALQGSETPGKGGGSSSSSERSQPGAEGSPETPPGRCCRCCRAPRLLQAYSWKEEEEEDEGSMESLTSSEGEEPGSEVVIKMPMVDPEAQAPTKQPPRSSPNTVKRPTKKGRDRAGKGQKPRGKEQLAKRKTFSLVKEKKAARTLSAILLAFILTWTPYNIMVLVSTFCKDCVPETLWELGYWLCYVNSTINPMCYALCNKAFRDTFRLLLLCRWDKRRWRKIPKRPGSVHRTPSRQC
Description: mAChR M1 cell-based functional assay (calcium mobilization), positive allosteric modulator activity: increase in the EC20 acetylcholine response. Conditions: for Emax: PAM mode; for EC50: increase in the EC20 acetylcholine response, read-out: PAM Activity Human M1 EC50; call rule not given here. In outline: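 CHO-K1 cells stably expressing human M1, loaded with Fluo-4 AM; calcium flux recorded on FDSS at 1 Hz over 300 s following compound addition. PAM activity is the concentration-dependent increase of an EC20 acetylcholine response; EC50 and Emax from four-parameter logistic fits of 11-point, 1:3 concentration series.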

Assay [2] concerns the target T1, human mAChRM1. Description: mAChR M1 cell-based functional assay (calcium mobilization), agonist activity upon compound addition, Emax relative to acetylcholine maximum. Particulars: for Agonist Activity Human M1 EC50 / EC50: calcium mobilization upon compound addition; for Emax: relative to the maximum for acetylcholine. In outline: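 CHO-K1 cells stably expressing human M1 were loaded with Fluo-4 AM for 50 min at 37 °C. Compound was added 4 s into a 300 s FDSS read at 1 Hz, over 11-point 1:3 dilution curves. Agonism was taken as a concentration-dependent rise in calcium fluorescence ratio, with Emax expressed relative to the acetylcholine maximum from four-parameter logistic fits.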

For `[2H]C1([2H])c2ncccc2C(=O)N1Cc1ccc(-c2ccc(C(C)(C)O)c3nn(C)cc23)cc1C(C)C` [Compound 153, 6-(4-(7-(2-hydroxypropan-2-yl)-2-methyl-2H-indazol-4-yl)-2-isopropylbenzyl)-6,7-dihydro-5H-pyrrolo[3,4-b]pyridin-5-one-7,7-d2], on human mAChRM1 [1], the Emax was 35% and the EC50 is at least 10 µM. The “Agonist Activity Human M1 EC50” value on human mAChRM1 [2] is “inactive”.
On to `Cn1cc2c(-c3cc(F)c(CN4Cc5cccc(F)c5C4=O)c(F)c3)ccc(C(C)(C)O)c2n1` [Compound 154, 2-(2,6-difluoro-4-(7-(2-hydroxypropan-2-yl)-2-methyl-2H-indazol-4-yl)benzyl)-7-fluoroisoindolin-1-one], for which, at human mAChRM1 [1], the maximal effect (Emax) was 87% and the EC50 turned out to be 0.064 µM. The “Agonist Activity Human M1 EC50” value at human mAChRM1 [2] is “inactive”.
On the same counts, the results for `Cn1cc2cc(-c3cc(F)c(CN4Cc5cccc(F)c5C4=O)c(F)c3)cc(C(C)(C)O)c2n1` [Compound 155, 2-(2,6-difluoro-4-(7-(2-hydroxypropan-2-yl)-2-methyl-2H-indazol-5-yl)benzyl)-7-fluoroisoindolin-1-one] are 75%, 0.358 µM and “inactive”.
On the same counts, the results for `[2H]C([2H])([2H])C(O)(c1ccc(-c2cc(F)c(CN3Cc4cccc(F)c4C3=O)c(F)c2)c2cn(C)nc12)C([2H])([2H])[2H]` [Compound 156, 2-(2,6-difluoro-4-(7-(2-hydroxypropan-2-yl-1,1,1,3,3,3-d)-2-methyl-2H-indazol-4-yl)benzyl)-7-fluoroisoindolin-1-one] are 83%, 0.136 µM and “inactive”.
With `Cn1ncc2c(-c3cc(F)c(CN4Cc5cccc(F)c5C4=O)c(F)c3)ccc(C(C)(C)O)c21` [Compound 157, 2-(2,6-difluoro-4-(7-(2-hydroxypropan-2-yl)-1-methyl-1H-indazol-4-yl)benzyl)-7-fluoroisoindolin-1-one], on human mAChRM1 [1], the Emax amounted to 61% and the concentration giving a half-maximal response (EC50) is at least 10 µM. For the same compound, the “Agonist Activity Human M1 EC50” value at human mAChRM1 [2] is “inactive”.
As to `Cn1cc2c(-c3cc(F)c(CN4Cc5cccc(F)c5C4=O)c(F)c3)ccc(C(C)(O)C(F)F)c2n1` (centres unmarked) [Compound 158, 2-(4-(7-(1,1-difluoro-2-hydroxypropan-2-yl)-2-methyl-2H-indazol-4-yl)-2,6-difluorobenzyl)-7-fluoroisoindolin-1-one], at human mAChRM1 [1], the Emax came out at 77% and the concentration for a half-maximal effect (EC50) is 0.45 µM. The “Agonist Activity Human M1 EC50” value on human mAChRM1 [2] is “inactive”.
The like results for `Cn1cc2c(-c3cc(F)c(CN4Cc5cccc(F)c5C4=O)c(F)c3)ccc(C3(O)COC3)c2n1` [Compound 159, 2-(2,6-difluoro-4-(7-(3-hydroxyoxetan-3-yl)-2-methyl-2H-indazol-4-yl)benzyl)-7-fluoroisoindolin-1-one] were, in that order, 81%, 0.118 µM and “inactive”.
The like results for `Cn1cc2c(-c3ccc(CN4Cc5cccc(F)c5C4=O)c(F)c3)ccc(C(C)(C)O)c2n1` [Compound 160, 7-fluoro-2-(2-fluoro-4-(7-(2-hydroxypropan-2-yl)-2-methyl-2H-indazol-4-yl)benzyl)isoindolin-1-one] were, in that order, 80%, 0.296 µM and “inactive”.
As for `Cc1cc(-c2ccc(C(C)(C)O)c3nn(C)cc23)ccc1CN1Cc2cccc(F)c2C1=O` [Compound 161, 7-fluoro-2-(4-(7-(2-hydroxypropan-2-yl)-2-methyl-2H-indazol-4-yl)-2-methylbenzyl)isoindolin-1-one], on human mAChRM1 [1], the maximal effect (Emax) amounted to 80% and the EC50 came out at 0.521 µM. The “Agonist Activity Human M1 EC50” value on human mAChRM1 [2] was “inactive”.
Regarding `Cc1cc(-c2ccc(C(C)(C)O)c3nn(C)cc23)cc(F)c1CN1Cc2cccc(F)c2C1=O` [Compound 162, 7-fluoro-2-(2-fluoro-4-(7-(2-hydroxypropan-2-yl)-2-methyl-2H-indazol-4-yl)-6-methylbenzyl)isoindolin-1-one], at human mAChRM1 [1], the Emax amounted to 75% and the 50% effective concentration (EC50) was 0.202 µM. On human mAChRM1 [2], the EC50 is at least 10 µM and the Emax was found to be 19%.
The like results for `Cn1cc2c(-c3cc(F)c(CN4Cc5cccc(F)c5C4=O)cc3F)ccc(C(C)(C)O)c2n1` [Compound 163, 2-(2,5-difluoro-4-(7-(2-hydroxypropan-2-yl)-2-methyl-2H-indazol-4-yl)benzyl)-7-fluoroisoindolin-1-one] were, in that order, 78%, 0.124 µM, at least 10 µM and 11%.
With `Cn1cc2c(-c3ccc(CN4Cc5cccc(F)c5C4=O)c(F)c3F)ccc(C(C)(C)O)c2n1` [Compound 164, 2-(2,3-difluoro-4-(7-(2-hydroxypropan-2-yl)-2-methyl-2H-indazol-4-yl)benzyl)-7-fluoroisoindolin-1-one], on human mAChRM1 [1], the maximal effect (Emax) worked out at 71% and the EC50 came out at 1.21 µM. Also, the “Agonist Activity Human M1 EC50” value on human mAChRM1 [2] was “inactive”.
`Cn1cc2c(-c3cc(F)c(CN4Cc5cccc(F)c5C4=O)c(Cl)c3)ccc(C(C)(C)O)c2n1` [Compound 165, 2-(2-chloro-6-fluoro-4-(7-(2-hydroxypropan-2-yl)-2-methyl-2H-indazol-4-yl)benzyl)-7-fluoroisoindolin-1-one]: on human mAChRM1 [1], the Emax came to 80% and the EC50 is 0.361 µM. Besides, on human mAChRM1 [2], the “Agonist Activity Human M1 EC50” value is “inactive”.
Turning to `Cn1cc2cc(-c3ccc(CN4Cc5cccc(F)c5C4=O)c(F)c3)cc(C(C)(C)O)c2n1` [Compound 166, 7-fluoro-2-(2-fluoro-4-(7-(2-hydroxypropan-2-yl)-2-methyl-2H-indazol-5-yl)benzyl)isoindolin-1-one], on human mAChRM1 [1], the maximum response (Emax) was 76% and the EC50 was determined as 0.744 µM. The “Agonist Activity Human M1 EC50” value at human mAChRM1 [2] is “inactive”.
The like results for `Cc1cc(-c2cc(C(C)(C)O)c3nn(C)cc3c2)ccc1CN1Cc2cccc(F)c2C1=O` [Compound 167, 7-fluoro-2-(4-(7-(2-hydroxypropan-2-yl)-2-methyl-2H-indazol-5-yl)-2-methylbenzyl)isoindolin-1-one] were, in that order, 74%, 3.12 µM and “inactive”.
The like results for `Cc1cc(-c2cc(C(C)(C)O)c3nn(C)cc3c2)cc(F)c1CN1Cc2cccc(F)c2C1=O` [Compound 168, 7-fluoro-2-(2-fluoro-4-(7-(2-hydroxypropan-2-yl)-2-methyl-2H-indazol-5-yl)-6-methylbenzyl)isoindolin-1-one] were, in that order, 79%, 0.998 µM and “inactive”.
On the same counts, the results for `Cn1cc2cc(-c3cc(F)c(CN4Cc5cccc(F)c5C4=O)cc3F)cc(C(C)(C)O)c2n1` [Compound 169, 2-(2,5-difluoro-4-(7-(2-hydroxypropan-2-yl)-2-methyl-2H-indazol-5-yl)benzyl)-7-fluoroisoindolin-1-one] are 76%, 0.591 µM and “inactive”.
Consider `Cn1cc2cc(-c3ccc(CN4Cc5cccc(F)c5C4=O)c(F)c3F)cc(C(C)(C)O)c2n1` [Compound 170, 2-(2,3-difluoro-4-(7-(2-hydroxypropan-2-yl)-2-methyl-2H-indazol-5-yl)benzyl)-7-fluoroisoindolin-1-one], for which, at human mAChRM1 [1], the Emax was found to be 71% and the EC50 was found to be 1.96 µM. Besides, the “Agonist Activity Human M1 EC50” value on human mAChRM1 [2] was “inactive”.
On the same counts, the results for `Cn1cc2cc(-c3cc(F)c(CN4Cc5cccc(F)c5C4=O)c(Cl)c3)cc(C(C)(C)O)c2n1` [Compound 171, 2-(2-chloro-6-fluoro-4-(7-(2-hydroxypropan-2-yl)-2-methyl-2H-indazol-5-yl)benzyl)-7-fluoroisoindolin-1-one] are 75%, at least 10 µM and “inactive”.
The like results for `Cn1cc2c(-c3cc(F)c(CN4Cc5ccccc5C4=O)c(F)c3)ccc(C(C)(C)O)c2n1` [Compound 172, 2-(2,6-difluoro-4-(7-(2-hydroxypropan-2-yl)-2-methyl-2H-indazol-4-yl)benzyl)isoindolin-1-one] were, in that order, 85%, 0.155 µM and “inactive”.
For `Cn1cc2c(-c3cc(F)c(CN4Cc5ncc(Br)cc5C4=O)c(F)c3)ccc(C(C)(C)O)c2n1` [Compound 173, 3-bromo-6-(2,6-difluoro-4-(7-(2-hydroxypropan-2-yl)-2-methyl-2H-indazol-4-yl)benzyl)-6,7-dihydro-5H-pyrrolo[3,4-b]pyridin-5-one], at human mAChRM1 [1], the maximum response (Emax) was found to be 75% and the 50% effective concentration (EC50) stood at 0.414 µM. Besides, the “Agonist Activity Human M1 EC50” value on human mAChRM1 [2] is “inactive”.

For orientation: Emax means the maximal effect, on the per cent scale that the assay sets. A word on the EC50: it is the midpoint of the concentration-response curve.
